Read-outs that look alike come from different tables or passages of the source.
Assays:
poly(dA-dT)n = assay: DNA thermal melting; assay type: binding; conditions: thermal melting with poly(dA-dT); compared with DB766
[1] = Preliminary in vivo toxicity evaluation in uninfected animals; design: species or system mice; conditions: for Adverse reaction after dosing: mouse, in vivo, ip, 30 mg/kg
[2] = test system: intracellular Leishmania amazonensis; assay: Efficacy against intracellular Leishmania amazonensis parasites; assay type: cell-based; conditions: read-out: IC50 L. a., intracellular L. amazonensis
Leishmania = conditions: read-out: IC50 value (antileishmanial, in vitro); cited from earlier work
[3] = test system: intracellular Leishmania donovani; conditions: read-out: IC50 L. d.; cited from earlier work
[4] = test system: intracellular Leishmania amazonensis; conditions: read-out: IC50 L. a.; cited from earlier work

Row | SMILES | DNA binding (in words) (poly(dA-dT)n) | Toxicity to mice (in words) [1] | Adverse reaction after dosing [1] | other results
1 | Cl.Cl.N=C(Nc1ccc(NC(=N)c2ccccn2)cc1)c1ccccn1 [3a, N,N'-(1,4-phenylene)dipicolinimidamide hydrochloride] | essentially do not bind to DNA | – | – | –
2 | Cl.Cl.N=C(Nc1ccc(NC(=N)c2ncccn2)cc1)c1ncccn1 [3b, N,N'-(1,4-phenylene)dipyrimidine-2-carboximidamide hydrochloride] | essentially do not bind to DNA | – | – | –
3 | Cl.Cl.N=C(Nc1ccc(-c2ccc(NC(=N)c3ccccn3)cc2)cc1)c1ccccn1 [9a, N,N'-([1,1'-biphenyl]-4,4'-diyl)dipicolinimidamide hydrochloride] | binds with the same affinity as DB766 | quite toxic to mice | severe tremors | IC50 [2]: < 1000 nM
4 | Cl.Cl.N=C(Nc1ccc(Oc2ccc(NC(=N)c3ccccn3)cc2)cc1)c1ccccn1 [9c, N,N'-(oxybis(4,1-phenylene))dipicolinimidamide hydrochloride] | – | quite toxic to mice | severe tremors | IC50 [2]: < 1000 nM
5 | CC(C)Oc1cc(NC(=N)c2ccccn2)ccc1-c1ccc(-c2ccc(NC(=N)c3ccccn3)cc2OC(C)C)o1 [DB766] | – | – | – | IC50 (Leishmania): < 100 nM; IC50 [3]: 36 nM; IC50 [4]: 87 nM
6 | Cl.Cl.N=C(Nc1ccccn1)c1ccc(C(=N)Nc2ccccn2)cc1 [compound 6, N ^1,N ^4-di(pyridin-2-yl)terephthalimidamide hydrochloride] | essentially do not bind to DNA | – | – | –
7 | CC(C)Oc1cc(NC(=N)c2ccccn2)ccc1-c1ccc(NC(=N)c2ccccn2)cc1OC(C)C.Cl.Cl [compound 13, N,N'-(2,2'-di-isopropoxy-[1,1'-biphenyl]-4,4'-diyl)dipicolinimidamide hydrochloride] | essentially does not bind to DNA | quite toxic to mice | severe tremors | –

— paper PMC3560421 (European journal of medicinal chemistry, 2012)
